Like-named read-outs stand apart in the source and are kept apart here.
What was measured:
[1] = target: Glucocorticoid receptor, NR3C1 (h) (Homo sapiens, UniProt P04150); test: IPP NR3C1 binding (agonist radioligand); details: IPP screening at 10 uM; control dexamethasone
[2] = tested on: dog; details: ref ToxRefDB/Paul-Friedman et al. (2020)/regulatory opinions, cited from earlier work
[3] = tested on: CYP2B6; details: PBK level L3, Intrinsic Liver Clearance, ref [12], cited from earlier work
[4] = target: T1, Progesterone receptor, PGR (h) (Homo sapiens, UniProt P06401); test: biochemical; format: biochemical; details: agonist, progesterone for control
T1 sequence (P06401 1-933): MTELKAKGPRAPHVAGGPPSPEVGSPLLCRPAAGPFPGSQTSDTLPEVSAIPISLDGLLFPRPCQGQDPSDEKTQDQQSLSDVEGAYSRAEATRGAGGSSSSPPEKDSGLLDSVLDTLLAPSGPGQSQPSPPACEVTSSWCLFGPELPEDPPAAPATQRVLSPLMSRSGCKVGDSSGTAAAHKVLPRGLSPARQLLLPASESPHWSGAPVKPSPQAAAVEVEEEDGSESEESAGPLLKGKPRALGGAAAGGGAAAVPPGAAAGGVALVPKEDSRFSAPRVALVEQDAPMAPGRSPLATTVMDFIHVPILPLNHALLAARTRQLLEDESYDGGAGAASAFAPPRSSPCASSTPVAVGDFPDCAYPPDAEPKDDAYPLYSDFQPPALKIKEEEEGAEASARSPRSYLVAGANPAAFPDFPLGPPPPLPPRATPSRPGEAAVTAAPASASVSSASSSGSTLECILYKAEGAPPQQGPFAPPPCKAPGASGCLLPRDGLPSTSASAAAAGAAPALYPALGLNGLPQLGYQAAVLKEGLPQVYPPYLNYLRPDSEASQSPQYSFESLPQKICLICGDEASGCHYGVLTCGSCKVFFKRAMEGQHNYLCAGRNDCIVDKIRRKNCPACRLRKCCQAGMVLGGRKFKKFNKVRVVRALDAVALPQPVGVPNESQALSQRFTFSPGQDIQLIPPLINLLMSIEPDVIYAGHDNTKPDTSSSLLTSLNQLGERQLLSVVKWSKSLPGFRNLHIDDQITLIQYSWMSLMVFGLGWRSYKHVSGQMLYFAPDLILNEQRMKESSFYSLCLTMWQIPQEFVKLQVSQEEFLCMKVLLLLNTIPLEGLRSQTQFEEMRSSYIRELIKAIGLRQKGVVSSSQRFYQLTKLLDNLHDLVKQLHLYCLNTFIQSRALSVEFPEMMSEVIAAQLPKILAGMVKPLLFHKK

[5] = target: T1, Progesterone receptor, PGR (h); test: IPP PGR coactivator recruitment (antagonist); format: biochemical; details: ligand progesterone
[6] = cited from earlier work
[7] = hepatic intrinsic clearance (Clint); details: PBK input
[8] = target: T2, Peroxisome proliferator-activated receptor alpha, PPARA (h) (Homo sapiens, UniProt Q07869); test: IPP PPARA coactivator recruitment (antagonist); format: biochemical; details: 10 uM; antagonist; ligand GW 7647
T2 sequence (Q07869 1-468): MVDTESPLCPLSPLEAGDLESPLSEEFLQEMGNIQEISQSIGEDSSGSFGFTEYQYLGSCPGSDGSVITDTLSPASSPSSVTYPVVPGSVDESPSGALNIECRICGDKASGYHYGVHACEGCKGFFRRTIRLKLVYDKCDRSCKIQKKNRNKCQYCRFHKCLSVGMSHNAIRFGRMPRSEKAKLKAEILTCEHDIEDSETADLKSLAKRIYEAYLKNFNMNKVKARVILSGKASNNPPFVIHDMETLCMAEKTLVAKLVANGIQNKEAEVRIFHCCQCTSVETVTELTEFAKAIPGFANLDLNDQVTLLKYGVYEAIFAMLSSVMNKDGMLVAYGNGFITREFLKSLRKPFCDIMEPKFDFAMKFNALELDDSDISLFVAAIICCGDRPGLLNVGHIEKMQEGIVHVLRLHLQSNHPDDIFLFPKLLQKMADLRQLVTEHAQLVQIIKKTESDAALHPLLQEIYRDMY

[9] = target: T3, Peroxisome proliferator-activated receptor gamma, PPARG (h) (Homo sapiens, UniProt P37231); test: IPP PPARG coactivator recruitment (agonist); format: biochemical; details: 10 uM, rosiglitazone for control
T3 sequence (P37231 1-505): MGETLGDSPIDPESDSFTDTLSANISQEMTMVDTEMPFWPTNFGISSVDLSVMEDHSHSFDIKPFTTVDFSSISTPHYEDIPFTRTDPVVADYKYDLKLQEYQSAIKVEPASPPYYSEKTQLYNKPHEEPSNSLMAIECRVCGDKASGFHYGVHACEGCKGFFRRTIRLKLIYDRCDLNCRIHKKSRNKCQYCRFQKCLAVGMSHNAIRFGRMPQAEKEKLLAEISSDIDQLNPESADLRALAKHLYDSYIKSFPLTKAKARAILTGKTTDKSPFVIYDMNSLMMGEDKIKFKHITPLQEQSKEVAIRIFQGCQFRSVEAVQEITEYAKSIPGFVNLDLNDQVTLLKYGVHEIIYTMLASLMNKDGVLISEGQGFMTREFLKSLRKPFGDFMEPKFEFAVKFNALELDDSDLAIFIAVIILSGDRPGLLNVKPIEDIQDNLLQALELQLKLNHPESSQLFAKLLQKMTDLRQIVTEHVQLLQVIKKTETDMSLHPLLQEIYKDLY

[10] = target: T3, Peroxisome proliferator-activated receptor gamma, PPARG (h); test: IPP PPARG coactivator recruitment (antagonist); format: biochemical; details: 10 uM, ligand rosiglitazone
[11] = target: T4, Thyroid hormone receptor beta, THRB (h) (Homo sapiens, UniProt P10828); test: IPP THRB coactivator recruitment (agonist); format: biochemical; details: 10 uM, T3
T4 construct: purchased Eurofins Cerep (SafetyScreen44-based IPP panel)

[12] = human, Oral 100 mg, Tablet, 27 healty male, Fasted, validation, ref Shank, R.P. et al. (2005) Epilepsy Research 63:103-112
[13] = human, Oral 200 mg, Tablet, 25 healty male, Fasted, calibration, ref Shank, R.P. et al. (2005) Epilepsy Research 63:103-112
[14] = human, Oral 400 mg, Tablet, 26 healty male, Fasted, validation, ref Shank, R.P. et al. (2005) Epilepsy Research 63:103-112
[15] = Oral 500 mg tablet, Preparation A: non-shellaced core, sugar coated, fasted, 5 healthy male, calibration, ref Hart 1975
[16] = Oral 500 mg tablet, Preparation B: shellaced core, sugar coated, fasted, 5 healthy male, calibration, ref Hart 1975
[17] = Oral 500 mg tablet, Preparation C: film-coated, fasted, 5 healthy male, calibration, ref Hart 1975
[18] = human, Oral 500 mg repeat every 12 h, 2 x 250 mg tablets (Terramycin), 4 healthy male, Fasted, measured data for day 1 and day 7, validation, ref GREEN, BROWN & CALVERT, European Journal of Clinical Pharmacology (1979) 10:245-250, cited in EPA (1987)
[19] = human, Oral 500 mg, Preparation D: tablet, film-coated (Oxytetracycline hydrochloride), 5 healthy male, Fasted, calibration, ref HART, Br. J. clin. Pharmac. (1975), 2, 277-280
[20] = human, Oral 500 mg, Preparation E: Capsule (Oxytetracycline hydrochloride), 5 healthy male, Fasted, calibration, ref HART, Br. J. clin. Pharmac. (1975), 2, 277-280

Chain of Glucocorticoid receptor, NR3C1 (h) (P04150 whole entry): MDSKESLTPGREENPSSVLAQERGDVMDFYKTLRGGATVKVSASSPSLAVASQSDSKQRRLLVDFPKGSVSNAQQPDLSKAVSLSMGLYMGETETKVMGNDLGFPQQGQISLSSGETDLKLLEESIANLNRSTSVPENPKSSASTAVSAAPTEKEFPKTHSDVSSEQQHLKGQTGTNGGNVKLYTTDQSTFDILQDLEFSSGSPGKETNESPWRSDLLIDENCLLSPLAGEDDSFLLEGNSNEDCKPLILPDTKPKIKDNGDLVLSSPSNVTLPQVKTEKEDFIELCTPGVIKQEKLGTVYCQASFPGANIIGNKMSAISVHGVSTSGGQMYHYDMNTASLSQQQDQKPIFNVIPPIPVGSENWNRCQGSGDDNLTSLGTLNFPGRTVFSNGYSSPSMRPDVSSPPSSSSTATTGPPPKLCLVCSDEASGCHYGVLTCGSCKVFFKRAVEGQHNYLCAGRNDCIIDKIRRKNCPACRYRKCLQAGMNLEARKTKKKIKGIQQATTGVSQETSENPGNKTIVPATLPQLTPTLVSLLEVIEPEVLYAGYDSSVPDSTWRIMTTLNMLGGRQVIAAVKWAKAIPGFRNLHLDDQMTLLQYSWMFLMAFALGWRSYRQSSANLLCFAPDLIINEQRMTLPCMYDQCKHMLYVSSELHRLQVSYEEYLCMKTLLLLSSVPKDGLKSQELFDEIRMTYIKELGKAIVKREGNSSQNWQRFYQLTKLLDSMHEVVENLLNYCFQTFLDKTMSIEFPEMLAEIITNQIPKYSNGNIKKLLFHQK
T4 sequence (P10828 whole entry): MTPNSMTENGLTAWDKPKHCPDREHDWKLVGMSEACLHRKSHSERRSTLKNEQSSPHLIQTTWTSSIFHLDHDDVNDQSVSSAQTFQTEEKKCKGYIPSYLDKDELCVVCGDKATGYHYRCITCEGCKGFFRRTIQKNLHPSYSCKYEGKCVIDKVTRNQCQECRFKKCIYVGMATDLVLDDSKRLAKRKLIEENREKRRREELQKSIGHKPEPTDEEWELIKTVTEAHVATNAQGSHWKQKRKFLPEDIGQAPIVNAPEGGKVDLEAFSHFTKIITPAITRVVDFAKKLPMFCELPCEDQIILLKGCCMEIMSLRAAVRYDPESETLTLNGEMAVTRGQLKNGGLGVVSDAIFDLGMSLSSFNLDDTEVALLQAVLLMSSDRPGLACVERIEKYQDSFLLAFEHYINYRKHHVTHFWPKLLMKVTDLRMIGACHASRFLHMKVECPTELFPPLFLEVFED

Molecule: CCOP(=S)(OCC)Oc1nc(Cl)c(Cl)cc1Cl [Chlorpyrifos, O,O-Diethyl O-(3,5,6-trichloropyridin-2-yl) phosphorothioate]
- Specific binding [1]: 29.4%
- PoD (NOAEL) ([2]; 2 years, inhibition of plasma and erythrocyte ChE): 0.01 mg/kg bw/day
- Vmax CYP2B6 (CPFO) [3]: 418 uL/min/nmol CYP
- Km ([3]; read-out: km CYP2B6 (CPFO)): 0.12 µM

Molecule: CC1(C)O[C@@H]2[C@@H](CO[C@@]3(COS(N)(=O)=O)OC(C)(C)O[C@@H]23)O1 [Topiramate, [(3aS,5aR,8aR,8bS)-2,2,7,7-Tetramethyltetrahydro-2H,3aH,7H-bis[1,3]dioxolo[4,5-b:4',5'-d]pyran-3a-yl]methyl sulfamate (non-preferred name)]
- IPP screening %, Coactivator recruitment ([4]; 100 uM): 0.5%
- IPP screening %, Coactivator recruitment ([5]; 100 uM): 2.2%
- Reported AUC0-t [6, 12]: 50.54 µg·h/mL
- Reported cmax [6, 12]: 1.3281 µg/mL
- Reported tmax [6, 12]: 4 h
- Reported AUC0-t [6, 13]: 145 µg·h/mL
- Reported cmax [6, 13]: 3.1578 µg/mL
- Reported tmax [6, 13]: 3 h
- Reported AUC0-t [6, 14]: 229 µg·h/mL
- Reported cmax [6, 14]: 6.5205 µg/mL
- Reported tmax [6, 14]: 2 h
- plasma half-life ([6]; ref not given): over 20 h
- Intrinsic Liver Clearance ([7]; level L2, scaled from [6] internal data (unpublished)): 15.02 L/h
- Intrinsic Liver Clearance ([7]; level L3, optimised based on [39]): 0.874 L/h

Molecule: (4S,4aR,5S,5aR,6S,12aS)-4-(Dimethylamino)-3,5,6,10,12,12a-hexahydroxy-6-methyl-1,11-dioxo-1,4,4a,5,5a,6,11,12a-octahydrotetracene-2-carboxamide--hydrogen chloride (1/1) [Oxytetracycline hydrochloride]
- IPP screening %, Coactivator recruitment [8]: 42.3%
- IPP screening %, Coactivator recruitment [9]: -0.1%
- IPP screening %, Coactivator recruitment [10]: 31.2%
- IPP screening %, Coactivator recruitment [11]: -3.0%
- PoD (NOAEL) ([2]; 12 months (dog), 24 months (rat)): 50 mg/kg bw/day
- Reported AUC0-t [6, 15]: 5.731 µg·h/mL
- Reported cmax [6, 15]: 1.2 µg/mL
- Reported tmax [6, 15]: 2 h
- Reported AUC0-t [6, 16]: 4.455 µg·h/mL
- Reported cmax [6, 16]: 0.88 µg/mL
- Reported tmax [6, 16]: 3 h
- Reported AUC0-t [6, 17]: 7.198 µg·h/mL
- Reported cmax [6, 17]: 1.43 µg/mL
- Reported tmax [6, 17]: 3 h
- Reported AUC0-t [6, 18]: 79.42 µg·h/mL
- Reported cmax [6, 18]: 2.25 µg/mL
- Reported tmax [6, 18]: 74 h
- Reported AUC0-t [6, 19]: 8.279 µg·h/mL
- Reported cmax [6, 19]: 1.51 µg/mL
- Reported tmax [6, 19]: 2 h
- Reported AUC0-t [6, 20]: 7.8 µg·h/mL
- Reported cmax [6, 20]: 1.45 µg/mL
- Reported tmax [6, 20]: 3 h

Molecule: mixture of 2- and 3-tert-butyl-4-methoxyphenol [Butylated Hydroxyanisole]
- Specific binding [1]: -0.5%
- IPP screening %, Coactivator recruitment [8]: 4.4%
- IPP screening %, Coactivator recruitment [9]: -0.1%
- IPP screening %, Coactivator recruitment [10]: 1.4%
- IPP screening %, Coactivator recruitment ([4]; 10 uM): 0.1%
- IPP screening %, Coactivator recruitment ([5]; 10 uM): 4.0%
- IPP screening %, Coactivator recruitment [11]: 1.0%

— paper PMC11879040, “Advancing systemic toxicity risk assessment: Evaluation of a NAM-based toolbox approach” (Toxicological Sciences, 2024)
